Here are results for three compounds from US11884660B2, “Substituted oxopyridine derivative” (Bayer Pharma Aktiengesellschaft, priority 2018, dated 2024).

Structures can show the parent of a compound that is named as a salt. Bounds are passed on as bounds.

Assay [1] concerns the target human plasma kallikrein (Homo sapiens (Human), UniProt P03952). Briefly: Determination of the plasma kallikrein activity (fluorogenic substrate H-Pro-Phe-Arg-AMC). To be noted: human plasma kallikrein 0.6 nM; 15 min preincubation; 30 min at 22° C.; some as mean values from multiple determinations. It counts as biochemical. Here is the method:
a.1) Determination of the Plasma Kallikrein Activity
To determine the plasma kallikrein inhibition of the substances according to the invention, a biochemical test system is used which utilizes the reaction of a peptidic plasma kallikrein substrate to determine the enzymatic activity of human plasma kallikrein. Here, plasma kallikrein cleaves from the peptic plasma kallikrein substrate the C-terminal aminomethylcoumarin (AMC), the fluorescence of which is measured. The determinations are carried out in microtitre plates.
Test substances are dissolved in dimethyl sulphoxide and serially diluted in dimethyl sulphoxide (3000 μM to 0.0078 μM; resulting final concentrations in the test: 50 μM to 0.00013 μM). In each case 1 μl of the diluted substance solutions is placed into the wells of white microtitre plates from Greiner (384 wells). 20 μl of assay buffer (50 mM Tris/HCl pH 7.4; 100 mM sodium chloride solution; 5 mM of calcium chloride solution; 0.1% of bovine serum albumin) and 20 μl of plasma kallikrein from Kordia (0.6 nM in assay buffer) are then added successively. After 15 min of incubation, the enzyme reaction is started by addition of 20 μl of the substrate H-Pro-Phe-Arg-AMC dissolved in assay buffer (10 μM in assay buffer) from Bachem, the mixture is incubated at room temperature (22° C.) for 30 min and fluorescence is then measured (excitation: 360 nm, emission: 460 nm). The measured emissions of the test batches with test substance are compared to those of control batches without test substance (only dimethyl sulphoxide instead of test substance in dimethyl sulphoxide), and IC50 values are calculated from the concentration/activity relationships. Activity data from this test are listed in Table A below (some as mean values from multiple independent individual determinations): […]

The target in assay [2] is human factor XIa (Homo sapiens (Human), UniProt P03951). Put plainly: Measurement of FXIa inhibition (fluorogenic substrate Boc-Glu(OBzl)-Ala-Arg-AMC). To be noted: human factor XIa 0.45 nM; 15 min preincubation; 30 min at 22° C.; some as mean values from multiple determinations. The format is biochemical. On the procedure:
a.2) Measurement of FXIa Inhibition
The factor XIa inhibition of the substances according to the invention is determined using a biochemical test system which utilizes the reaction of a peptidic factor XIa substrate to determine the enzymatic activity of human factor XIa. Here, factor XIa cleaves from the peptic factor XIa substrate the C-terminal aminomethylcoumarin (AMC), the fluorescence of which is measured. The determinations are carried out in microtitre plates.
Test substances are dissolved in dimethyl sulphoxide and serially diluted in dimethyl sulphoxide (3000 μM to 0.0078 μM; resulting final concentrations in the test: 50 μM to 0.00013 μM). In each case 1 μl of the diluted substance solutions is placed into the wells of white microtitre plates from Greiner (384 wells). 20 μl of assay buffer (50 mM of Tris/HCl pH 7.4; 100 mM of sodium chloride; 5 mM of calcium chloride; 0.1% of bovine serum albumin) and 20 μl of factor XIa from Kordia (0.45 nM in assay buffer) are then added successively. After 15 min of incubation, the enzyme reaction is started by addition of 20 μl of the factor XIa substrate Boc-Glu(OBzl)-Ala-Arg-AMC dissolved in assay buffer (10 μM in assay buffer) from Bachem, the mixture is incubated at room temperature (22° C.) for 30 min and fluorescence is then measured (excitation: 360 nm, emission: 460 nm). The measured emissions of the test batches with test substance are compared to those of control batches without test substance (only dimethyl sulphoxide instead of test substance in dimethyl sulphoxide), and IC50 values are calculated from the concentration/activity relationships. Activity data from this test are listed in Table B below (some as mean values from multiple independent individual determinations): […]

human factor XIa, sequence (P03951 388-625): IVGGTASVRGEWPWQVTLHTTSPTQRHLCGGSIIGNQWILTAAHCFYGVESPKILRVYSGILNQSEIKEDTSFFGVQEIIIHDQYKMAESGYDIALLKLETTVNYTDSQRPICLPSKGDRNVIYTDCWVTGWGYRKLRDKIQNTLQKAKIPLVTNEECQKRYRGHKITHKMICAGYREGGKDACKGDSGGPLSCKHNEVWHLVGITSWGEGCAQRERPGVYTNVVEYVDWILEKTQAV
human factor XIa, sequence (P03951 19-387 partner): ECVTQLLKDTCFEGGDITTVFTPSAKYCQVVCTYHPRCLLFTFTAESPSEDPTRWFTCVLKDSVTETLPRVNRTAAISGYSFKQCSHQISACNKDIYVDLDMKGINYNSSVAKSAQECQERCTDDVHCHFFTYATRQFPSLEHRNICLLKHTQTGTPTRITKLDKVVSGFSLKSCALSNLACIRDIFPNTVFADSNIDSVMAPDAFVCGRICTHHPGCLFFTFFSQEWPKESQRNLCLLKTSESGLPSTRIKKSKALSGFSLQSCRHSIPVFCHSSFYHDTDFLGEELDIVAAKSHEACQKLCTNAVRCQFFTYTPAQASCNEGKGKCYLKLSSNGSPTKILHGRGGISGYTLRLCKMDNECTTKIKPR
human plasma kallikrein, sequence (P03952 391-638): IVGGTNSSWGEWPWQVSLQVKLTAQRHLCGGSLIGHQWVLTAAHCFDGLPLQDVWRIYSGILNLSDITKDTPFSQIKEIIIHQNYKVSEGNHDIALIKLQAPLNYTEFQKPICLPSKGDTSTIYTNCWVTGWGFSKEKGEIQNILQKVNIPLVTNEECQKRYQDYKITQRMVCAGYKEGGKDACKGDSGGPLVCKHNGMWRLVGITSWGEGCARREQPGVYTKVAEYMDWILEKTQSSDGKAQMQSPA
human plasma kallikrein, sequence (P03952 20-390 partner): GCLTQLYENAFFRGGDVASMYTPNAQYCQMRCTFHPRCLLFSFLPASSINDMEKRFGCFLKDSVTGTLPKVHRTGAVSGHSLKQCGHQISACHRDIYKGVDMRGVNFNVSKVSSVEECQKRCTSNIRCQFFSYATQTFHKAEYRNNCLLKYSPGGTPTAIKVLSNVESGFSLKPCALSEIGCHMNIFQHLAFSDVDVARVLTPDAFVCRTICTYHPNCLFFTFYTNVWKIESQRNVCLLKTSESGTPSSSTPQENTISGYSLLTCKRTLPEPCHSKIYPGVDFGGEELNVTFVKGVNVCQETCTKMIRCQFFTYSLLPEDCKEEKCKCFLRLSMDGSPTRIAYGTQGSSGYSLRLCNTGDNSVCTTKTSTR

On to `COc1cn(C(C(=O)Nc2ccn3ncc(C(N)=O)c3c2)C(C)CCCN)c(=O)cc1-c1cc(Cl)ccc1C#N` (racemic) [Example 1, 5-({6-Amino-2-[4-(5-chloro-2-cyanophenyl)-5-methoxy-2-oxopyridin-1(2H)-yl]-3-methyl-hexanoyl}amino)pyrazolo[1,5-a]pyridine-3-carboxamidetrifluoroacetate], for which the half-inhibitory concentration (IC50) in assay [1] is 5.6 nM; in assay [2] it was above 10000 nM.

As to `COc1cn([C@H](C(=O)Nc2ccn3ncc(C(N)=O)c3c2)C(C)CCCN)c(=O)cc1-c1cc(Cl)ccc1C#N` (single isomer, unassigned) [Example 2, trifluoroacetate], the IC50 in assay [1] was 1.8 nM; in assay [2], above 2000 nM.

Turning to `COc1cn([C@H](C(=O)Nc2ccn3ncc(C(N)=O)c3c2)C(C)CCCN)c(=O)cc1-c1cc(Cl)ccc1C#N` (single isomer, unassigned) [Example 3, trifluoroacetate], the IC50 in assay [1] is 2.1 nM; in assay [2], above 2000 nM.
